Data taken from US7662860B2 (priority 2003, dated 2010).
Where two headings read alike, the source gives them in different places.

Tests used:
SARS-CoV virus = assay type: cell-based; conditions: for CPE / Protective ratio of the infected cells: Vero-E6 cells infected with SARS-CoV; for Protective ratio of the infected cells: >1.5 times judged active

Structure (SMILES): CN(C)CCCSc1ccccc1NC(=O)C=Cc1ccccc1 [cinanserin, 2′-(3-dimethylaminopropylthio)cinnamanilide]
- CPE (SARS-CoV virus; 4 ug/mL): + (<25% +)
- Protective ratio of the infected cells (SARS-CoV virus; 4 ug/mL): 3.69 times
- CPE (SARS-CoV virus; 20 ug/mL): + (<25% +)
- Protective ratio of the infected cells (SARS-CoV virus; 20 ug/mL): 3.85 times
- protective activity of inhibiting SARS-CoV from infecting Vero-E6 cell (SARS-CoV virus; result in words): evident protective activity
- Cytotoxicity of the sample (Vero-E6 cell): —* (key: *: if the cytotoxicity of the sample is >50% when comparing with the cell control, CPE isn't evaluated, and the protective ratio isn't calculated)
